# Experimental data reported in patent US20110245228A1, “PROTEIN KINASE C ACTIVITY ENHANCER CONTAINING ALKYL ETHER DERIVATIVE OR SALT THEREOF” (Toyama Chemical Co., Ltd., priority 2006, published 2011).
# Molecular target: T1, PKCε (Rattus norvegicus, UniProt P09216)
# T1 construct: endogenous in cells; host or cells: primary cultured cerebral cortex cells from 18-day Wistar/ST rat fetuses
# T1 sequence (P09216 1-737): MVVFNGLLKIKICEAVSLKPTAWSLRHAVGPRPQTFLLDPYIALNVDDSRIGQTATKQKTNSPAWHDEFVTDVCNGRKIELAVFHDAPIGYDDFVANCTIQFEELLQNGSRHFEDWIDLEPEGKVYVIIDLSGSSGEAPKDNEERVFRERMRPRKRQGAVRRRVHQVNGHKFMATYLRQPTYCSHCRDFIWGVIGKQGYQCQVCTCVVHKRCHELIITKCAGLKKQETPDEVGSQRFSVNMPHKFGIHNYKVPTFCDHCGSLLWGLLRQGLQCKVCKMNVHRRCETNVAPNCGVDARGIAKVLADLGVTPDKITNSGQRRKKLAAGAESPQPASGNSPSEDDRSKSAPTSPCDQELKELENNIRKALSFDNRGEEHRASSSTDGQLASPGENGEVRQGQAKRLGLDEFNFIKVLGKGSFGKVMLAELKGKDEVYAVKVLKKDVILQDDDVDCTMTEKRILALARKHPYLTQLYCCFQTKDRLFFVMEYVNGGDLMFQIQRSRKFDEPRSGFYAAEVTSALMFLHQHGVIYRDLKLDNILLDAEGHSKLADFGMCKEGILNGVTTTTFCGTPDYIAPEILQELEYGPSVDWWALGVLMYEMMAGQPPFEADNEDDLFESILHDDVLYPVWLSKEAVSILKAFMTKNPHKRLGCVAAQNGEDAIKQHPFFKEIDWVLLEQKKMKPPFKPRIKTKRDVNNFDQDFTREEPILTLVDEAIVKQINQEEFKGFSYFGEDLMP
# Assay: PKC activity enhancing effect in cultured cells (PKCε migration from cytosol to membrane fraction, western blotting)
# Format: cell-based
# Settings: cultured cerebral cortex cells of Wistar/ST rat fetuses, 0.1 μmol/L in terms of T-817
# Description: The PKC activity was determined, according to the method of Etcheberrigaray et al. (Proceedings of the National Academy of Sciences of the United States of America, 2004, Vol. 101, No. 30, p. 11141-11146), as applicable. At the time of activation, PKC migrates from the cytoplasm to membranes. The PKC level in the membrane fraction over that in the cytosol fraction was taken as the index of PKC activation. In this experiment, the activity of PKCε, a known isoform of PKC, was measured.
# Cultured cells were prepared following the method of Hirata et al. (J. Pharmacol. Exp. Ther., 2005, Vol. 314, No. 1, p. 252-259). […]
# On Day 8 from the start of the culturing, T-817MA was added to the cells to a final concentration of 0.1 μmol/L, in terms of T-817. […] The protein concentration in the cytosol fraction and the membrane fraction was measured, and the protein content in each sample was adjusted to a certain constant level with the extraction buffer or the extraction buffer containing Triton X-100. […] Then, after washing with PBST, the membrane was treated with ECL plus reagent (manufactured by GE Healthcare Bio-Sciences) and the luminescence was detected by a Lumino Image Analyzer. […]
compound,measurement,setting,value
"OC1CN(CCCOCCc2ccc3sccc3c2)C1 [T-817MA, 1-(3-(2-(1-benzothiophen-5-yl)ethoxy)propyl)azetidin-3-ol]",PKCε migration from the cytoplasm to membranes (index of PKC activation),2 hours after treatment,migrated from the cytoplasm to membranes
same,PKCε migration from the cytoplasm to membranes (index of PKC activation),4 hours after treatment,migrated from the cytoplasm to membranes
